# System: gene expression in Col-0 seedling shoots
# Assay: Microarray analysis (ATH1 Affymetrix) after BL or abrasin treatment
# Format: in vivo, Arabidopsis
# Conditions: 30 min
# Method: FIG. 14: Clustering of gene expression profiles by QT-clust analysis. Clusters illustrating the major patterns of the data sets. Points: BIK-30: 30 μM abrasin 30 min; BL-30: 1 μM brassinolide 30 min; DMSO-30: control DMSO 30 min; BIK-120: 30 μM abrasin 120 min; BL-120: 1 μM brassinolide 120 min; DMSO-120: control DMSO 120 min.
# Col-0 seeds were germinated vertically on ½ MS medium for 7 days under 16 h light/8 h dark cycles. The seedlings were overlaid with liquid ½ MS medium containing 1 μM brassinolide (BL, Fuji Chemical Industries, Ltd., Toyama, Japan), 30 μM abrasin (BIK, ChemBridge Corporation) and DMSO and treated for 30 and 120 min. The shoot parts were collected for RNA isolation. All sampling points were performed in three independent experiments. RNA was extracted using RNeasy kit (Qiagene). […] total RNA per array was used to hybridise the ATH1 Affymetrix Arabidopsis arrays according to standard procedure. The overrepresentation analyses were performed using BiNGO software (Maere et al., 2005).
# We performed a microarray analysis using the Arabidopsis whole genome chip (Affymetix) to determine whether abrasin activated the expression of BR-inducible genes at transcriptional level. Wild-type Col-0 seedlings were exposed to 1 μM BL, 30 μM ABRASIN and DMSO (mock-treatment) for two time points (30 min and 120 min) and the shoot parts were collected for RNA isolation. The analysis of the variance of the normalized gene expression data took in account the variability parameters affecting the expression level: type of hormone treatment, duration of treatment and the interaction between these two.
structure (smiles),measurement,setting,value
"O=C(O)CCC(=O)Nc1ccc(Br)cn1 [abrasin, 4-[(5-bromo-2-pyridinyl)amino]-4-oxobutanoic acid]",Fold-change AT4G16563 aspartyl protease family protein,,1.16
same,Fold-change AT4G16670 expressed protein,,0.79
same,Fold-change AT4G16780 homeobox-leucine zipper protein 4 (HAT4)/HD-ZIP protein,,0.54
same,Fold-change AT4G17250 expressed protein,,1.20
same,Fold-change AT4G17460 homeobox-leucine zipper protein 1 (HAT1)/HD-ZIP protein 1,,0.29
same,Fold-change AT4G21510 F-box family protein,,1.03
same,Fold-change AT4G23030 MATE efflux protein-related,,1.60
same,Fold-change AT4G23070 rhomboid family protein,,2.00
same,Fold-change AT4G23810 WRKY family transcription factor,,5.76
same,"Fold-change AT4G24160 hydrolase, alpha/beta fold family protein",,1.42
same,Fold-change AT4G25620 hydroxyproline-rich glycoprotein family protein,,0.51
same,Fold-change AT4G25780 pathogenesis-related protein,,0.12
same,Fold-change AT4G27970 C4-dicarboxylate transporter/malic acid transport family protein,,2.43
same,Fold-change AT4G28240 wound-responsive protein-related,,0.49
same,"Fold-change AT4G28490 leucine-rich repeat transmembrane protein kinase, putative",,1.20
same,Fold-change AT4G28703 expressed protein,,1.95
same,Fold-change AT4G28780 GDSL-motif lipase/hydrolase family protein,,1.00
same,Fold-change AT4G29070 expressed protein,,0.78
same,Fold-change AT4G30080 transcriptional factor B3 family protein,,0.89
same,Fold-change AT4G31020 expressed protein,,2.67
same,Fold-change AT4G32280 auxin-responsive AUX/IAA family protein (IAA29),,0.32
same,Fold-change AT4G33050 calmodulin-binding family protein,,2.38
same,Fold-change AT4G33700 CBS domain-containing protein,,0.73
same,Fold-change AT4G34610 homeodomain-containing protein,,1.02
same,Fold-change AT4G36110 auxin-responsive protein,,1.16
same,Fold-change AT4G36780 brassinosteroid signalling positive regulator-related,,0.49
same,Fold-change AT4G37240 expressed protein,,0.79
same,Fold-change AT4G37290 expressed protein,,0.95
same,Fold-change AT4G37590 phototropic-responsive NPH3 family protein,,1.04
same,Fold-change AT4G38840 auxin-responsive protein (SAUR14),,1.01
same,Fold-change AT4G38850 auxin-responsive protein (SAUR-AC1),,1.00
same,Fold-change AT4G38860 auxin-responsive protein (SAUR16),,0.79
same,Fold-change AT4G39400 brassinosteroid insensitive 1 (BRI1),,0.71
same,Fold-change AT5G02020 expressed protein,,1.01
same,Fold-change AT5G05690 cytochrome P450 90A1 (CYP90A1) (CYP90) (CPD),,0.63
same,Fold-change AT5G07690 myb family transcription factor (MYB29),,0.58
same,Fold-change AT5G08130 basic helix-loop-helix (bHLH) family protein (BIM2),,0.76
same,Fold-change AT5G12050 expressed protein,,0.52
same,Fold-change AT5G13180 no apical meristem (NAM) family protein,,0.77
same,Fold-change AT5G13740 sugar transporter family protein,,0.81
same,Fold-change AT5G14730 expressed protein,,0.38
same,Fold-change AT5G16200 50S ribosomal protein-related,,0.37
same,Fold-change AT5G16980 NADP-dependent oxidoreductase,,1.11
same,Fold-change AT5G18750 DNAJ heat shock N-terminal domain-containing protein,,1.91
same,Fold-change AT5G19200 short-chain dehydrogenase/reductase (SDR) family protein,,1.00
same,Fold-change AT5G19340 expressed protein,,0.83
same,Fold-change AT5G24030 C4-dicarboxylate transporter/malic acid transport family protein,,2.35
same,Fold-change AT5G24660 expressed protein,,2.43
same,Fold-change AT5G25240 expressed protein,,0.74
same,Fold-change AT5G25930 leucine-rich repeat family protein,,2.65
same,Fold-change AT5G27350 sugar-porter family protein 1 (SFP1),,1.07
same,Fold-change AT5G27670 histone H2A,,0.79
same,Fold-change AT5G38310 expressed protein,,1.00
same,"Fold-change AT5G38990; AT5G39000 [AT5G38990, protein kinase family protein",,1.40
same,Fold-change AT5G39050 transferase family protein,,1.49
same,Fold-change AT5G39610 no apical meristem (NAM) family protein,,0.72
same,Fold-change AT5G39970 expressed protein,,1.42
same,Fold-change AT5G42830 transferase family protein,,1.03
same,Fold-change AT5G47370 homeobox-leucine zipper protein 2 (HAT2),,0.51
same,Fold-change AT5G48070 putative xyloglucan endotransglycosylase/hydrolase,,1.48
same,Fold-change AT5G48540 33 kDa secretory protein-related,,2.45
same,Fold-change AT5G51550 phosphate-responsive 1 family protein,,1.02
same,"Fold-change AT5G54490 calcium-binding EF-hand protein, putative",,0.73
same,Fold-change AT5G54860 integral membrane transporter family protein,,1.69
same,Fold-change AT5G55970 zinc finger (C3HC4-type RING finger) family protein,,0.96
same,Fold-change AT5G56980 expressed protein,,0.43
same,Fold-change AT5G57190 phosphatidylserine decarboxylase,,1.32
same,Fold-change AT5G57780 expressed protein,,0.35
same,Fold-change AT5G59080 expressed protein,,0.46
same,Fold-change AT5G60200 Dof-type zinc finger domain-containing protein,,1.36
same,Fold-change AT5G60270 lectin protein kinase family protein,,0.96
same,Fold-change AT5G60630 expressed protein,,0.99
same,Fold-change AT5G61600 encodes a member of the ERF (ethylene response factor),,0.53
same,Fold-change AT5G62360 invertase/pectin methylesterase inhibitor family protein,,0.52
same,Fold-change AT5G65310 homeobox-leucine zipper protein 5 (HB-5)/HD-ZIP transcription factor 5,,0.90
same,Fold-change AT5G66420 expressed protein,,0.92
same,Fold-change AT5G66590 allergen V5/Tpx-1-related family protein,,0.53
same,Fold-change AT5G67450 zinc finger (C2H2 type) protein 1 (AZF1),,6.17
same,Fold-change of gene AT4G16140 (proline-rich family protein),"245479_at, Cluster 6",1.16
same,Fold-change of gene AT4G15260 (UDP-glucoronosyl/UDP-glucosyl transferase family protein),"245543_at, Cluster 7",1.41
same,"Fold-change of gene AT5G09440 (phosphate-responsive protein, putative)","245885_at, Cluster 5",0.38
same,Fold-change of gene AT1G77380 (amino acid carrier),"246389_at, Cluster 10",1.32
same,Fold-change of gene AT5G15740 (expressed protein),"246516_at, Cluster 5",0.78
same,Fold-change of gene AT5G65300 (expressed protein),"247177_at, Cluster 5",0.31
same,Fold-change of gene AT5G64890 (expressed protein),"247205_at, Cluster 10",1.01
same,Fold-change of gene AT5G63790 (no apical meristem (NAM) family protein),"247351_at, Cluster 9",0.88
same,Fold-change of gene AT5G62630 (expressed protein),"247444_at, Cluster 7",1.62
same,Fold-change of gene AT5G60850 (Dof-type zinc finger domain-containing protein),"247601_at, Cluster 10",0.51
same,Fold-change of gene AT5G59510 (expressed protein),"247704_at, Cluster 9",1.00
same,Fold-change of gene AT5G58660 (oxidoreductase. 2OG-Fe(II) oxygenase family protein),"247774_at, Cluster 5",1.15
same,Fold-change of gene AT5G54120 (expressed protein),"248190_at, Cluster 5",0.82
same,Fold-change of gene AT5G54130 (calcium-binding EF hand family protein),"248191_at, Cluster 5",0.84
same,Fold-change of gene AT5G52900 (expressed protein),"248282_at, Cluster 6",1.70
same,Fold-change of gene AT5G49100 (expressed protein),"248646_at, Cluster 9",0.72
same,Fold-change of gene AT5G18060 (auxin-responsive protein),"250012_x_at, Cluster 6",1.00
same,Fold-change of gene AT5G09800 (U-box domain-containing protein),"250493_at, Cluster 9",1.04
same,Fold-change of gene AT5G08565 (expressed protein),"250537_at, Cluster 8",0.87
same,Fold-change of gene AT5G03670 (expressed protein),"250907_at, Cluster 5",0.61
same,Fold-change of gene AT5G01740 (expressed protein),"251072_at, Cluster 5",0.33
same,Fold-change of gene AT3G63380 (calcium-transporting ATPase),"251176_at, Cluster 10",0.85
same,Fold-change of gene AT3G60690 (auxin-responsive family protein),"251342_at, Cluster 9",0.91
same,Fold-change of gene AT3G45610 (Dof-type zinc finger domain),"252586_at, Cluster 10",0.94
same,Fold-change of gene AT3G44610 (protein kinase family protein),"252646_at, Cluster 5",0.83
same,Fold-change of gene AT4G34760 (auxin-responsive family protein),"253255_at, Cluster 6",1.80
same,Fold-change of gene AT4G34138 (UDP-glucoronosyl/UDP-glucosyl transferase family protein),"253281_at, Cluster 7",1.52
same,Fold-change of gene AT4G31910 (transferase family protein),"253483_at, Cluster 5",1.46
same,Fold-change of gene AT4G30410 (expressed protein),"253617_at, Cluster 5",0.94
same,Fold-change of gene AT4G30450 (glycine-rich protein),"253629_at, Cluster 5",0.84
same,Fold-change of gene AT4G26200 (1-aminocyclopropane-1-carboxylate synthase),"253999_at, Cluster 9",1.11
same,Fold-change of gene AT4G03400 (auxin-responsive GH3 family protein),"255403_at, Cluster 6",0.81
same,Fold-change of gene AT4G02700 (sulfate transporter),"255443_at, Cluster 7",1.76
same,Fold-change of gene AT1G22190 (AP2 domain-containing transcription factor),"255926_at, Cluster 8",0.45
same,Fold-change of gene AT1G66140 (zinc finger (C2H2 type) family protein),"256528_at, Cluster 6",0.87
same,Fold-change of gene AT3G25655 (expressed protein),"256762_at, Cluster 8",1.00
same,"Fold-change of gene AT3G21420 (oxidoreductase, 2OG-Fe(II) oxygenase family protein)","256818_at, Cluster 7",1.13
same,Fold-change of gene AT3G18280 (protease inhibitor/seed storage/lipid transfer protein),"257066_at, Cluster 5",1.03
same,Fold-change of gene AT1G29440 (auxin-responsive family protein),"257506_at, Cluster 6",0.96
same,"Fold-change of gene AT3G29200 (chorismate mutase, chloroplast (CM1))","257746_at, Cluster 5",0.83
same,Fold-change of gene AT1G13260 (DNA-binding protein RAV1 (RAV1)),"259364_at, Cluster 8",0.32
same,Fold-change of gene AT1G29500 (auxin-responsive protein),"259773_at, Cluster 6",1.01
same,Fold-change of gene AT1G29510 (auxin-responsive protein),"259783_at, Cluster 6",1.02
same,Fold-change of gene AT1G29450 (auxin-responsive protein),"259784_at, Cluster 6",0.99
same,Fold-change of gene AT1G29460 (auxin-responsive protein),"259787_at, Cluster 6",1.23
same,"Fold-change of gene AT1G76690; AT1G76680 ([AT1G76690, 12-oxophytodienoate reductase (OPR2))","259875_s_at, Cluster 7",1.95
same,Fold-change of gene AT1G76620 (expressed protein),"259985_at, Cluster 8",0.90
same,Fold-change of gene AT1G63720 (expressed protein),"260243_at, Cluster 10",0.92
same,Fold-change of gene AT1G48100 (glycoside hydrolase family 28 protein),"260727_at, Cluster 8",0.92
same,Fold-change of gene AT1G12200 (flavin-containing monooxygenase family protein),"261023_at, Cluster 7",1.44
same,Fold-change of gene AT1G12845 (expressed protein),"261203_at, Cluster 6",1.66
same,Fold-change of gene AT1G15550 (gibberellin 3-beta-dioxygenase),"261768_at, Cluster 6",1.12
same,Fold-change of gene AT1G80840 (WRKY family transcription factor),"261892_at, Cluster 9",0.43
same,Fold-change of gene AT1G80080 (leucine-rich repeat family protein),"262040_at, Cluster 6",1.56
same,Fold-change of gene AT1G80130 (expressed protein),"262050_at, Cluster 8",0.90
same,Fold-change of gene AT1G21680 (expressed protein),"262505_at, Cluster 10",0.82
same,Fold-change of gene AT1G34245 (expressed protein),"262543_at, Cluster 6",1.69
same,Fold-change of gene AT1G78460 (SOUL heme-binding family protein),"263126_at, Cluster 7",1.01
same,"Fold-change of gene AT1G78820; AT1G78830 ([AT1G78820, curculin-like (mannose-binding) lectin family protein)","264279_s_at, Cluster 7",1.27
